Key:
Format in all cases: in vivo
[1] = test system: Diabrotica balteata (corn root worm); experiment: Example B4: Diabrotica balteata, sprayed maize sprouts; conditions: 96 h, application rate 200 ppm, L2 larvae, 4 days after infestation, read-out: effect in at least one of the two categories (mortality or growth inhibition)
Description: Maize sprouts, placed on an agar layer in 24-well microtiter plates were treated with aqueous test solutions prepared from 10,000 ppm DMSO stock solutions by spraying. After drying, the plates were infested with L2 larvae (6 to 10 per well). The samples were assessed for mortality and growth inhibition in comparison to untreated samples 4 days after infestation.

[2] = test system: Plutella xylostella (diamond back moth); experiment: Example B3: Plutella xylostella, treated artificial diet; conditions: 120 h, application rate 200 ppm, L2 larvae, 5 days after infestation, read-out: effect in at least one of the two categories (mortality or growth inhibition)
Description: 24-well microtiter plates with artificial diet were treated with aqueous test solutions prepared from 10,000 ppm DMSO stock solutions by pipetting. After drying, the plates were infested with L2 larvae (10 to 15 per well). The samples were assessed for mortality and growth inhibition in comparison to untreated samples 5 days after infestation.

[3] = test system: Euschistus heros (neotropical brown stink bug); experiment: Example B6: Euschistus heros, sprayed soybean leaf; conditions: 120 h, application rate 200 ppm, N-2 nymphs, 5 days after infestation
Text: Soybean leaf on agar in 24-well microtiter plates were sprayed with aqueous test solutions prepared from 10,000 ppm DMSO stock solutions. After drying the leaf were infested with N-2 nymphs.

[4] = test system: Spodoptera littoralis (Egyptian cotton leaf worm); experiment: Example B1: Spodoptera littoralis, sprayed cotton leaf discs; conditions: foliar, 72 h, application rate 200 ppm, L1 larvae, 3 days after infestation, read-out: control in at least one of the three categories (mortality, anti-feedancy or growth inhibition)
Description: Cotton leaf discs were placed on agar in 24-well microtiter plates and sprayed with aqueous test solutions prepared from 10,000 ppm DMSO stock solutions. After drying the leaf discs were infested with five L1 larvae. The samples were assessed for mortality, anti-feedant effect, and growth inhibition in comparison to untreated samples 3 days after infestation. Control of Spodoptera littoralis by a test sample is when at least one of mortality, anti-feedant effect, and growth inhibition is higher than the untreated sample.

[5] = test system: Myzus persicae (green peach aphid); experiment: Example B5: Myzus persicae, sprayed sunflower leaf discs; conditions: foliar, 144 h, application rate 200 ppm, aphid population of mixed ages, 6 days after infestation
Description: Sunflower leaf discs were placed on agar in a 24-well microtiter plate and sprayed with aqueous test solutions prepared from 10,000 ppm DMSO stock solutions. After drying, the leaf discs were infested with an aphid population of mixed ages. The samples were assessed for mortality 6 days after infestation.

[6] = test system: Spodoptera littoralis (Egyptian cotton leaf worm); experiment: Example B2: Spodoptera littoralis, systemic test via lettuce roots in agar; conditions: 144 h, application rate 12.5 ppm, Spodoptera eggs, 6 days after infestation, read-out: control in at least one of the three categories (mortality, anti-feedancy or growth inhibition)
Text: Test compounds were applied by pipette from 10,000 ppm DMSO stock solutions into 24-well plates and mixed with agar. Lettuce seeds were placed on the agar and the multi well plate was closed by another plate which contains also agar. After 7 days the roots have absorbed the compound and the lettuce has grown into the lid plate. The lettuce leafs were now cut off into the lid plate. Spodoptera eggs were pipetted through a plastic stencil on a humid gel blotting paper and the plate closed with it. The samples were assessed for mortality, anti-feedant effect and growth inhibition in comparison to untreated samples 6 days after infestation.
The following compounds gave an effect of at least 80% control in at least one of the three categories (mortality, anti-feedancy or growth inhibition) at an application rate of 12.5 ppm: P2, P3, P8, P9, P11 and P17, P19, P20, P22, P23, P25, P26, P28, P30, P31, P32, P33, P40, P42, P43, P44, P45, P46, P47, P48, P49, P50, P51, P52, P53, P54, P60 and P61.

CCS(=O)(=O)c1cc(-c2ccc(C(F)(F)F)cc2)cnc1C(=O)/N=c1\sc(C(F)(F)F)nn1C [Compound P5]
≥ 80%: percent effect (mortality or growth inhibition) at 200 ppm [1] | percent effect (mortality or growth inhibition) at 200 ppm [2] | mortality at 200 ppm [3] | percent control (mortality, anti-feedant effect or growth inhibition) at 200 ppm [4] | mortality at 200 ppm [5]

CCS(=O)(=O)c1cc(-c2ccccc2)cnc1C(=O)/N=c1\sc(C(F)(F)F)nn1C [Compound P6, (N)-3-ethylsulfonyl-N-[3-methyl-5-(trifluoromethyl)-1,3,4-thiadiazol-2-ylidene]-5-phenyl-pyridine-2-carboxamide]
≥ 80%: percent effect (mortality or growth inhibition) at 200 ppm [1] | percent effect (mortality or growth inhibition) at 200 ppm [2] | mortality at 200 ppm [3] | percent control (mortality, anti-feedant effect or growth inhibition) at 200 ppm [4] | mortality at 200 ppm [5]

CCS(=O)(=O)c1cc(-c2ccc(C(F)(F)F)cc2)cnc1C(=O)N=c1ccc(SC(F)(F)F)cn1C [Compound P16]
≥ 80%: percent effect (mortality or growth inhibition) at 200 ppm [1] | percent effect (mortality or growth inhibition) at 200 ppm [2] | mortality at 200 ppm [3] | percent control (mortality, anti-feedant effect or growth inhibition) at 200 ppm [4] | mortality at 200 ppm [5]

CCS(=O)(=O)c1cc(C2CC2)cnc1C(=O)/N=c1\ccc(SC(F)(F)F)cn1C [Compound P18, (N)-5-cyclopropyl-3-ethylsulfonyl-N-[1-methyl-5-(trifluoromethylsulfanyl)-2-pyridylidene]pyridine-2-carboxamide]
≥ 80%: percent effect (mortality or growth inhibition) at 200 ppm [1] | percent effect (mortality or growth inhibition) at 200 ppm [2] | mortality at 200 ppm [3] | percent control (mortality, anti-feedant effect or growth inhibition) at 200 ppm [4] | mortality at 200 ppm [5]

CCS(=O)(=O)c1cc(-c2cccc(F)c2)cnc1C(=O)/N=c1\sc(C(F)(F)F)nn1C [Compound P26]
≥ 80%: percent effect (mortality or growth inhibition) at 200 ppm [1] | percent effect (mortality or growth inhibition) at 200 ppm [2] | mortality at 200 ppm [3] | percent control (mortality, anti-feedant effect or growth inhibition) at 12.5 ppm [6] | percent control (mortality, anti-feedant effect or growth inhibition) at 200 ppm [4]

CCS(=O)(=O)c1cc(-c2ccc(C#N)cc2)cnc1C(=O)/N=c1\sc(C(F)(F)F)nn1C [Compound P28]
≥ 80%: percent effect (mortality or growth inhibition) at 200 ppm [1] | percent effect (mortality or growth inhibition) at 200 ppm [2] | mortality at 200 ppm [3] | percent control (mortality, anti-feedant effect or growth inhibition) at 12.5 ppm [6] | percent control (mortality, anti-feedant effect or growth inhibition) at 200 ppm [4]

CCS(=O)(=O)c1cc(-c2ccc(F)cc2)cnc1C(=O)/N=c1\sc(C(F)(F)F)nn1C [Compound P32]
≥ 80%: percent effect (mortality or growth inhibition) at 200 ppm [1] | percent effect (mortality or growth inhibition) at 200 ppm [2] | mortality at 200 ppm [3] | percent control (mortality, anti-feedant effect or growth inhibition) at 12.5 ppm [6] | percent control (mortality, anti-feedant effect or growth inhibition) at 200 ppm [4]

CCS(=O)(=O)c1cc(-c2cc(F)ccc2F)cnc1C(=O)/N=c1\sc(C(F)(F)F)nn1C [Compound P33]
≥ 80%: percent effect (mortality or growth inhibition) at 200 ppm [1] | percent effect (mortality or growth inhibition) at 200 ppm [2] | mortality at 200 ppm [3] | percent control (mortality, anti-feedant effect or growth inhibition) at 12.5 ppm [6] | percent control (mortality, anti-feedant effect or growth inhibition) at 200 ppm [4]

CCS(=O)(=O)c1cc(-c2ncc(C(F)(F)F)cn2)cnc1C(=O)/N=c1\sc(C(F)(F)F)nn1C [Compound P43]
≥ 80%: percent effect (mortality or growth inhibition) at 200 ppm [1] | percent effect (mortality or growth inhibition) at 200 ppm [2] | mortality at 200 ppm [3] | percent control (mortality, anti-feedant effect or growth inhibition) at 12.5 ppm [6] | percent control (mortality, anti-feedant effect or growth inhibition) at 200 ppm [4]

CCS(=O)(=O)c1cc(-c2cccc(C(F)(F)F)n2)cnc1C(=O)/N=c1\sc(C(F)(F)F)nn1C [Compound P44]
≥ 80%: percent effect (mortality or growth inhibition) at 200 ppm [1] | percent effect (mortality or growth inhibition) at 200 ppm [2] | mortality at 200 ppm [3] | percent control (mortality, anti-feedant effect or growth inhibition) at 12.5 ppm [6] | percent control (mortality, anti-feedant effect or growth inhibition) at 200 ppm [4]

CCS(=O)(=O)c1cc(-c2ncc(C(F)(F)F)cc2F)cnc1C(=O)/N=c1\sc(C(F)(F)F)nn1C [Compound P47]
≥ 80%: percent effect (mortality or growth inhibition) at 200 ppm [1] | percent effect (mortality or growth inhibition) at 200 ppm [2] | mortality at 200 ppm [3] | percent control (mortality, anti-feedant effect or growth inhibition) at 12.5 ppm [6] | percent control (mortality, anti-feedant effect or growth inhibition) at 200 ppm [4]

CCS(=O)(=O)c1cc(-c2cccc(C#N)n2)cnc1C(=O)/N=c1\sc(C(F)(F)F)nn1C [Compound P48]
≥ 80%: percent effect (mortality or growth inhibition) at 200 ppm [1] | percent effect (mortality or growth inhibition) at 200 ppm [2] | mortality at 200 ppm [3] | percent control (mortality, anti-feedant effect or growth inhibition) at 12.5 ppm [6] | percent control (mortality, anti-feedant effect or growth inhibition) at 200 ppm [4]

CCS(=O)(=O)c1cc(-c2ccc(Cl)cn2)cnc1C(=O)/N=c1\sc(C(F)(F)F)nn1C [Compound P49]
≥ 80%: percent effect (mortality or growth inhibition) at 200 ppm [1] | percent effect (mortality or growth inhibition) at 200 ppm [2] | mortality at 200 ppm [3] | percent control (mortality, anti-feedant effect or growth inhibition) at 12.5 ppm [6] | percent control (mortality, anti-feedant effect or growth inhibition) at 200 ppm [4]

CCS(=O)(=O)c1cc(-c2ccc(C(F)(F)F)cn2)cnc1C(=O)/N=c1\sc(C(F)(F)F)nn1C [Compound P50]
≥ 80%: percent effect (mortality or growth inhibition) at 200 ppm [1] | percent effect (mortality or growth inhibition) at 200 ppm [2] | mortality at 200 ppm [3] | percent control (mortality, anti-feedant effect or growth inhibition) at 12.5 ppm [6] | percent control (mortality, anti-feedant effect or growth inhibition) at 200 ppm [4]

CCS(=O)(=O)c1cc(-c2ccc(C#N)nc2)cnc1C(=O)/N=c1\sc(C(F)(F)F)nn1C [Compound P52]
≥ 80%: percent effect (mortality or growth inhibition) at 200 ppm [1] | percent effect (mortality or growth inhibition) at 200 ppm [2] | mortality at 200 ppm [3] | percent control (mortality, anti-feedant effect or growth inhibition) at 12.5 ppm [6] | percent control (mortality, anti-feedant effect or growth inhibition) at 200 ppm [4]

CCS(=O)(=O)c1cc(-c2cnc(C(F)(F)F)s2)cnc1C(=O)/N=c1\sc(C(F)(F)F)nn1C [Compound P56]
≥ 80%: percent effect (mortality or growth inhibition) at 200 ppm [1] | percent effect (mortality or growth inhibition) at 200 ppm [2] | percent control (mortality, anti-feedant effect or growth inhibition) at 200 ppm [4] | mortality at 200 ppm [5]

CCS(=O)(=O)c1cc(-c2cncc(C(F)(F)F)n2)cnc1C(=O)/N=c1\sc(C(F)(F)F)nn1C [Compound P61]
≥ 80%: percent effect (mortality or growth inhibition) at 200 ppm [1] | percent effect (mortality or growth inhibition) at 200 ppm [2] | mortality at 200 ppm [3] | percent control (mortality, anti-feedant effect or growth inhibition) at 12.5 ppm [6] | percent control (mortality, anti-feedant effect or growth inhibition) at 200 ppm [4]

Source: patent publication US10494366B2, “Pesticidally active amide heterocyclic derivatives with sulphur containing substituents” (Syngenta Participations AG, priority 2014, dated 2019)
